Patent US20220073536A1 (Rigel Pharmaceuticals, Inc., priority 2003, published 2022)
Where two headings read alike, the source gives them in different places. Each block holds one compound with its values, some of them ahead of it.

System: cultured human mast cells (CHMC)
Test: CHMC low cell density IgE activation: tryptase assay
Type: cell-based
Conditions: IgE activation
In short: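 CHMC were seeded at 1000–1500 cells/well in MT buffer and incubated 1 hr at 37 °C. They were then stimulated with anti-IgE for 30 min at 37 °C, with unstimulated wells as controls. Released tryptase in the supernatant was measured with a fluorogenic substrate after 30 min at room temperature.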

[1] = Homo sapiens, Mast cell, low cell density CHMC, tryptase, 3 pt, read-out: LD Tryptase, CHMC, IgE, 3 pt
[2] = Homo sapiens, Mast cell, low cell density, 8 pt, read-out: LD Tryptase, CHMC, IgE, 8 pt
[3] = low cell density CHMC, tryptase, 3 pt, read-out: LD Tryptase, CHMC, IgE, 3 pt
[4] = low cell density CHMC, tryptase, 8 pt, read-out: LD Tryptase, CHMC, IgE, 8 pt
[5] = Homo sapiens, Mast cell, low cell density CHMC, tryptase release, 3 pt, read-out: LD Tryptase, CHMC, IgE, 3 pt
[6] = low cell density CHMC, tryptase readout, 8 pt, read-out: LD Tryptase, CHMC, IgE, 8 pt
[7] = low cell density, 3 pt, read-out: LD Tryptase, CHMC, IgE, 3 pt
[8] = low cell density, 8 pt, read-out: LD Tryptase, CHMC, IgE, 8 pt
[9] = low cell density CHMC, tryptase release, 3 pt, read-out: LD Tryptase, CHMC, IgE, 3 pt
[10] = low cell density CHMC, tryptase release, 8 pt, read-out: LD Tryptase, CHMC, IgE, 8 pt
[11] = Homo sapiens, Mast cell, low cell density, 3 pt, read-out: LD Tryptase, CHMC, IgE, 3 pt
[12] = Homo sapiens, Mast cell, low cell density CHMC, tryptase release, 8 pt, read-out: LD Tryptase, CHMC, IgE, 8 pt
[13] = Homo sapiens, Mast cell, low cell density CHMC, tryptase, 8 pt, read-out: LD Tryptase, CHMC, IgE, 8 pt

IC50 (low cell density CHMC, tryptase readout, 3 pt, read-out: LD Tryptase, CHMC, IgE, 3 pt): < 10 µM
Compound: COc1cccc(Nc2ncc(F)c(Nc3ccc4c(n3)NC(=O)C(C)(C)O4)n2)c1C [Compound 1065, N4-(2,2-Dimethyl-3-oxo-4H-5-pyrid[1,4]oxazin-6-yl)-5-fluoro-N2-(3-methoxy-2-methylphenyl)-2,4-pyrimidinediamine]

IC50 [1]: > 10 µM
Compound: Cc1cc(N2CCN(C)CC2)ncc1Nc1ncc(F)c(NC2CC(C)(C)N(C)C(C)(C)C2)n1 [Compound 1249]

IC50 [6]: < 10 µM
Compound: COc1cccc(Nc2ncc(F)c(Nc3ccc4c(n3)NC(=O)CO4)n2)c1C [Compound 1061, 5-Fluoro-N2-(3-methoxy-2-methylphenyl)-N4-(3-oxo-2H,4H-5-pyrid[1,4]oxazin-6-yl)-2,4-pyrimidinediamine]

IC50 [3]: < 10 µM
IC50 [4]: < 10 µM
Compound: Fc1cnc(Nc2cccc(N3CCOCC3)c2)nc1Nc1ccc2c(n1)NCCO2 [Compound 1136, N4-(3,4-Dihydro-2H,4H-5-pyrid[1,4]oxazin-6-yl)-5-fluoro-N2-(3-morpholinophenyl)-2,4-pyrimidinediamine]

IC50 [3]: < 10 µM
IC50 [4]: < 10 µM
Compound: CC(=O)N1CCN(c2cccc(Nc3ncc(F)c(Nc4ccc5c(n4)NCCO5)n3)c2)CC1 [Compound 1137, N2-[3-(4-Acetylpiperazino)phenyl]-N4-(3,4-dihydro-2H,4H-5-pyrid[1,4]oxazin-6-yl)-5-fluoro-2,4-pyrimidinediamine]

IC50 [1]: < 10 µM
Compound: Cc1cc(Nc2ncc(F)c(NC3CCCC3)n2)ccc1N1CCN(C)CC1 [Compound 1200]

IC50 [1]: < 10 µM
Compound: CC(C)Nc1nc(Nc2ccc(N3CCN(C)CC3)cc2)ncc1F [Compound 1204]

IC50 [1]: > 10 µM
IC50 [13]: > 10 µM
Compound: NC(=O)c1ccc(Nc2ncc(F)c(Nc3ccc(C(N)=O)cc3)n2)cc1 [Compound 1339]

IC50 [3]: < 10 µM
Compound: CN1CCN(c2ccc(Nc3ncc(F)c(Nc4cc(C5CC5)n[nH]4)n3)cc2C(F)(F)F)CC1 [Compound 1211]

IC50 [1]: > 10 µM
Compound: CCN1CCN(c2ccc(Nc3ncc(F)c(NC(C)(C)C)n3)cn2)CC1 [Compound 1236]

IC50 [6]: < 10 µM
Compound: O=C1COc2ccc(Nc3nc(Nc4cccc(N5CCOCC5)c4)ncc3F)nc2N1 [Compound 1073, 5-Fluoro-N2-(3-morpholinophenyl)-N4-(3-oxo-2H,4H-5-pyrid[1,4]oxazin-6-yl)-2,4-pyrimidinediamine]

IC50 (Homo sapiens, Mast cell, low cell density CHMC, tryptase readout, 3 pt, read-out: LD Tryptase, CHMC, IgE, 3 pt): < 10 µM
Compound: COc1cccc(Nc2ncc(F)c(Nc3ccc4c(c3)NC(=O)C(C)(C)O4)n2)c1C [Compound 1062, N4-(2,2-Dimethyl-3-oxo-4H-benz[1,4]oxazin-6-yl)-5-fluoro-N2-(3-methoxy-2-methylphenyl)-2,4-pyrimidinediamine]

IC50 [13]: < 10 µM
Compound: COC(=O)c1ccc(Nc2ncc(F)c(Nc3ccc(OC)c(Cl)c3)n2)cc1 [Compound 1322]

IC50 [7]: < 10 µM
IC50 [8]: < 10 µM
Compound: CC(C)c1cccc(Nc2ncc(F)c(Nc3ccc4c(n3)NC(=O)C(C)(C)O4)n2)c1 [Compound 1003, N4-(2,2-Dimethyl-3-oxo-4H-5-pyrid[1,4]oxazin-6-yl)-5-fluoro-N2-(3-isopropylphenyl)-2,4-pyrimidinediamine]

Second part, the compound before the results:

Compound: CC1(C)Oc2ccc(Nc3nc(Nc4ccc5oncc5c4)ncc3F)cc2NC1=O [Compound 926]
IC50 [2]: < 10 µM

Compound: Fc1cnc(Nc2ccc3c(c2)OCCO3)nc1Nc1ccc2c(c1)OC(F)(F)C(F)(F)O2 [Compound 367]
IC50 [3]: < 10 µM
IC50 [4]: < 10 µM

Compound: COc1cc(Nc2nc(Nc3cc(Cl)cc(Cl)c3)ncc2F)cc(C(F)(F)F)c1 [Compound 337]
IC50 [5]: < 10 µM

Compound: Fc1cnc(Nc2ccc3cnn(CC4CCCCC4)c3c2)nc1Nc1ccc(Cl)c(Cl)c1 [Compound 723, N2-[1-(Cyclohexylmethyl)indazol-6-yl]-N4-(3,4-dichlorophenyl)-5-fluoro-2,4-pyrimidinediamine]
IC50 [1]: > 10 µM

Compound: CC1(C)Oc2ccc(Nc3nc(Nc4ccc5ccn(C(N)=O)c5c4)ncc3F)cc2NC1=O [Compound 348]
IC50 [1]: > 10 µM

Compound: CNC(=O)COc1cccc(Nc2ncc(F)c(Nc3ccc(OC)c(N)n3)n2)c1 [Compound 547, N4-(2-Amino-3-methoxypyrid-6-yl)-5-fluoro-N2[3-(N-methylaminocarbonylmethyleneoxy)phenyl]-2,4-pyrimidinediamine]
IC50 [7]: < 10 µM

Compound: Cn1c(CS(C)(=O)=O)nc2cc(Nc3ncc(F)c(Nc4ccc5c(n4)NC(=O)C(C)(C)O5)n3)ccc21 [Compound 969, N4-(2,2-Dimethyl-3-oxo-4H-5-pyrido[1,4]oxazin-6-yl)-5-fluoro-N2-{1-methyl-2-[ (methylsulfonyl)methyl]benzimidazol-5-yl}-2,4-pyrimidinediamine]
IC50 [7]: < 10 µM
IC50 [8]: < 10 µM

Compound: O=C1CCC(=O)N1CCCn1ncc2cc(Nc3ncc(F)c(Nc4ccc(Cl)c(Cl)c4)n3)ccc21 [Compound 854, N4-(3,4-Dichlorophenyl)-5-fluoro-N2-[1-[3-(N-succinimidopropyl)]indazol-5-yl]-2,4-pyrimidinediamine]
IC50 [9]: < 10 µM
IC50 [10]: > 10 µM

Compound: COc1ccc(Nc2nc(Nc3ccc4cnn(C(C)C)c4c3)ncc2F)nc1Cl [Compound 888]
IC50 [11]: < 10 µM

Compound: O=C1c2ccccc2C(=O)N1CCCn1ncc2cc(Nc3ncc(F)c(Nc4ccc(Cl)c(Cl)c4)n3)ccc21 [Compound 816, N4-(3,4-Dichlorophenyl)-5-fluoro-N2-[1-[3-(N-phthalimidopropyl)]indazol-5-yl]-2,4-pyrimidinediamine]
IC50 [10]: > 10 µM

Compound: COc1cc(Nc2ncc(F)c(Nc3cc(OC)cc(OC)c3)n2)cc(OC)c1 [Compound 340]
IC50 [5]: < 10 µM
IC50 [12]: < 10 µM

Compound: CN1C(=O)C(C)(C)Oc2ccc(Nc3ncc(F)c(Nc4ccc5c(n4)N(C)C(=O)C(C)(C)O5)n3)nc21 [Compound 687, N2,N4-Bis (3-oxo-2,2,4-trimethyl-5-pyrid[1,4]oxazin-6-yl)-5-fluoro-2,4-pyrimidinediamine]
IC50 [3]: < 10 µM

Compound: CC1(C)Oc2ccc(Nc3nc(Nc4ccc5cnn(CC6CCC6)c5c4)ncc3F)cc2NC1=O [Compound 732, N2-[1-(Cyclobutylmethyl)indazol-6-yl]-N4-(2,2-dimethyl-3-oxo-4H-benz[1,4]oxazin-6-yl)-5-fluoro-2,4-pyrimidinediamine]
IC50 [13]: < 10 µM

Compound: CC1(C)COc2ccc(Nc3nc(Cl)ncc3F)cc2N1 [Compound 320, N2-Chloro-N4-(3,3-dimethyl-1,4-benzoxazin-6-yl)-5-fluoro-pyrimidineamine]
IC50 [9]: < 10 µM

Compound: Fc1cnc(Nc2cc(Cl)cc(Cl)c2)nc1Nc1ccc2c(c1)OC(F)(F)C(F)(F)O2 [Compound 360]
IC50 [3]: > 10 µM

Compound: Cc1nc2ccc(Nc3ncc(F)c(Nc4ccc5c(c4)NC(=O)C(C)S5(=O)=O)n3)cc2[nH]1 (centres unmarked) [Compound 909]
IC50 [11]: < 10 µM

Compound: COc1ccc(Nc2nc(Nc3ccc4c(cnn4CC4CCCCC4)c3)ncc2F)cc1Cl [Compound 718, N4-(3-Chloro-4-methoxyphenyl)-N2-[1-(cyclohexylmethyl)indazol-5-yl]-5-fluoro-2,4-pyrimidinediamine]
IC50 [1]: < 10 µM

Compound: COc1ccc(Nc2nc(Nc3ccc4c(c3)nc(C(F)(F)F)n4C)ncc2F)cc1Cl [Compound 912]
IC50 [2]: < 10 µM

Compound: CC(C)(C)C(=O)NCCCn1ncc2cc(Nc3ncc(F)c(Nc4ccc(Cl)c(Cl)c4)n3)ccc21 [Compound 849, N4-(3,4-Dichlorophenyl)-5-fluoro-N2-[1-(3-pivalamidopropyl)indazol-5-yl]-2,4-pyrimidinediamine]
IC50 [12]: < 10 µM

Compound: Cc1cc2c(cnn2C)cc1Nc1ncc(F)c(Nc2ccc3c(c2)NC(=O)C(C)(C)O3)n1 [Compound 758, N2-(1,6-Dimethylindazol-5-yl)-N4-(2,2-dimethyl-3-oxo-4H-benz[1,4]oxazin-6-yl)-5-fluoro-2,4-pyrimidinediamine]
IC50 [1]: < 10 µM
IC50 [13]: < 10 µM

Compound: COC(=O)C(C)(C)Oc1ccc(Nc2nc(Nc3cc(C)cc(C)c3)ncc2F)cc1 [Compound 403, N2-(3,5-Dimethylphenyl)-N4-[4-(methoxycarbonyl-1,1-dimethylmethyleneoxy)phenyl]-5-fluoro-2,4-pyrimidinediamine]
IC50 [4]: < 10 µM

Compound: CC1(C)Oc2ccc(Nc3nc(Nc4cc(Cl)c(O)c(Cl)c4)ncc3F)nc2NC1=O [Compound 686, N4-(2,2-Dimethyl-3-oxo-4H-5-pyrid[1,4]oxazin-6-yl)-N2-(3,5-dichloro-4-hydroxyphenyl)-5-fluoro-2,4-pyrimidinediamine]
IC50 [3]: < 10 µM
IC50 [4]: < 10 µM

Compound: COc1ccc(Nc2nc(Nc3ccc4c(cnn4CCCN4C(=O)CCC4=O)c3)ncc2F)cc1Cl [Compound 853, N4-(3-Chloro-4-methoxyphenyl)-5-fluoro-N2-[1-[3-(N-succinimidopropyl)]indazol-5-yl]-2,4-pyrimidinediamine]
IC50 [9]: < 10 µM
IC50 [10]: < 10 µM

Compound: 5-Fluoro-N2-[2- (N-methylamino)carbonylindol-7-yl]-N4-[3,4-(tetrafluoroethylenedioxy)phenyl]-2,4-pyrimidinediamine [Compound 365]
IC50 [3]: < 10 µM

Compound: COc1cc(Nc2ncc(F)c(Nc3ccc4c(c3)OC(F)(F)O4)n2)cc(C(F)(F)F)c1 [Compound 568]
IC50 (low cell density CHMC, tryptase release, 3 point, read-out: LD Tryptase, CHMC, IgE, 3 pt): > 10 µM
